The values that follow come from patent publication US20260335279A1, “METHODS OF TREATING ISCHEMIA-REPERFUSION INJURIES” (University of Cincinnati, priority 2022, published 2026).

One assay concerns KLF5 promoter. The conditions noted are these: colorectal cancer cell lines; Bialkowska 2011; cited from earlier work.
In assay [1] the test system is KLF5. The conditions noted are these: colorectal cancer cell lines; Bialkowska 2011; cited from earlier work.
The test system of assay [2] is KLF5. The conditions noted are these: cited from earlier work.
Assay [3] concerns myocardial ischemia-reperfusion injury in mice. The experiment in a line: Infarct size evaluation upon Evans Blue/TTC staining after myocardial I/R. Type of assay: in vivo, mouse (C57BL/6). Here is the method:
(§1) The myocardial ischemia/reperfusion surgical protocol was applied as follows. Mice were anesthetized with 2% isoflurane inhalation until anesthesia was achieved. The animals' body temperature was maintained at 37 °C throughout the surgical procedure using a heating pad. A tracheal tube was placed via tracheal intubation and the respiration rate was set at 150 strokes/min with a tidal volume of 200 μL, using Minivent ventilator for mice (Model 845, Harvard Apparatus). A 1.2 cm incision was made over the left chest. After retraction of the pectoral major and minor muscles, the fourth intercostal space was exposed. […] The left anterior descending coronary artery (LAD) was then located, sutured, and ligated at a site 3-4 mm distal to the origin of the artery under the left atrium using a 6-0 silk suture. The heart was allowed to stabilize for 15 min and right after, ischemia was induced by tightening the suture against a small piece of polyethylene tube. At the end of the 30-minute ischemia period, the ligature was released for the induction of reperfusion, and then the manual evacuation of air and closure of muscle and skin were performed. The mouse was then monitored during the recovery period, which was generally completed within 3 to 5 minutes. Sustain-released buprenorphine (BupSR, 0.5 mg/kg body weight) was provided by subcutaneous injection. Mice were then left to recover until the end of the reperfusion (2 hours, 12 hours, 24 hours, or 4 weeks). The sham group underwent the same surgical procedure except that the LAD was not occluded.
Double staining of the heart with Evans Blue dye and Triphenyl-Tetrazolium Chloride (TTC) solution was employed for infarct size measurements. Mice were anesthetized upon 3% isoflurane inhalation. The thorax was cut and opened, and hearts were gently excised. Then, the aorta was cannulated and perfused with 5 mL of normal saline. The suture was re-tightened and Evans Blue solution (2.5% in WFI) was slowly infused through the aorta, to differentiate the ischemic part of the myocardium from the non-occluded, normally perfused area. The hearts were sliced into 1-2 mm sections immediately following. The heart slices were incubated with TTC solution (1% in PBS, pH=7.4) at 37 °C for 20 min. In this way, the necrotic area is delimited as a white area, while the viable tissue is stained red. […] The overall size of each slice (All/A), the area-at-risk (R), and the infarct area (I) were determined in a blinded manner for each slice using ImageJ software, and the percentages of Area at Risk (R/A) % and I/R % were calculated. […]
Administration of these two compounds was performed 5 minutes before the reopening of the coronary artery and infarct size was assessed upon 30 minutes of ischemia followed by 24 hours of reperfusion therapy.

Assay [4] has as its system reactive oxygen species in myocardium. The experiment in a line: DHE staining of myocardium (superoxide detection, oxidative stress) after I/R. It counts as in vivo, mouse (C57BL/6). The conditions noted are these: 2 h reperfusion; apocynin 5 mg/kg/12 h or GLX351322 3.8 mg/kg/12 h, intraperitoneal, at early reperfusion. The procedure:
as §1, with “Sustain-released buprenorphine (BupSR, 0.5 mg/kg body weight) was provided by subcutaneous injection. Mice were then left to recover until the end of the reperfusion (2 hours, 12 hours, 24 hours, or 4 weeks). The sham group underwent the same surgical procedure except that the LAD was not occluded.” left out
Live myocardium was isolated from mice at the time of euthanasia and stained with 20 μM dihydroethidium (DHE) for 30 min at room temperature. […] Individual nuclei were measured within each visual field using ImageJ software, and visual fields were averaged to measure mean fluorescence intensity for each mouse.
In order to unravel the mechanisms of KLF5-mediated cardiotoxicity, oxidative stress levels were evaluated at early reperfusion. […] Given the fact that inflammation and diapedesis of immune cells are important hallmarks of the post-ischemia-reperfusion response, the mRNA levels of IL-1α, IL-1β, IL-6, IL-10, and TNFα in the ischemic myocardium upon ML264 treatment were evaluated at 2 hours of reperfusion (FIGS. 51-5M) and 24 hours of reperfusion (FIGS. 5N-5Q). […]

A further assay relates to NOX4. Particulars: cited from earlier work.
Where [5] appears, read: apocynin 5 mg/kg/12 h or GLX351322 3.8 mg/kg/12 h, intraperitoneal, at early reperfusion, vs vehicle.

Regarding `CC(C)(C)c1cc(C=C(C#N)C#N)cc(C(C)(C)C)c1O` [AG17], in the assay with KLF5 promoter, the KLF5 promoter activity entry was “reduce”. Further, the KLF5 protein level result in the assay on KLF5 [1] is recorded as “reduce”.

For `CC(C)(C)c1cc(/C=C(\C#N)C(N)=S)cc(C(C)(C)C)c1O` [AG879], in the assay with KLF5 [2], the “inhibition of KLF5” value is listed as “inhibit”. Take `CCOC(=O)c1c(NC(=O)CN2CCN(C(=O)c3ccco3)CC2)sc2c1CCC2` [GLX-351322]: the infarct size result in assay [3] (setting [5]) is reported as “significant reduction”. Further, the “oxidative stress (DHE staining)” value in assay [4] was “significant suppression”. Besides, the “hydrogen peroxide production from NOX4-overexpressing cells” value in the assay on NOX4 is listed as “inhibits”. For the compound `CC(C)(C)c1ccc(S(=O)(=O)NCc2ccc(C(=O)Nc3cccnc3)cc2)cc1` [STF-31], in assay [3] (GLUT inhibitors 5 min before reopening of coronary artery, 30 min ischemia, 24 h reperfusion), the infarct size result is “not by STF-31 treatment”. `COc1cc(C(C)=O)ccc1O` [apocynin, acetovanillone]: the infarct size result in assay [3] (setting [5]) was “significant reduction”. Besides, the “oxidative stress (DHE staining)” value in assay [4] is “significant suppression”.
